Measured values: patent US20160228434A1, “TREATMENT OF DISEASES CAUSED BY ABNORMAL LYMPHOCYTE FUNCTION WITH AN HDAC6 INHIBITOR” (priority 2013, published 2016)
Entries after “also recorded” stand apart in the source; their conditions may differ.

Assays:
Type in all cases: in vivo
[1] = system: glomerular IL-6, IL-10 and TGF-β mRNA; assay: Glomerular IL-6, IL-10 and TGF-β mRNA by real-time RT-PCR in treated NZB/W mice; conditions: 38-week-old NZB/W mice
Procedure: (§1) NZB/W mice were injected intraperitoneally 5 days/week with the vehicle control (DMSO), ACY-738 treatment at 5 mg/kg (low-dose), or ACY-738 treatment at 20 mg/kg (high-dose) beginning at 22-weeks-of-age until euthanization at 38 weeks-of-age. ACY-738 was received from Acetylon Pharmaceuticals for use in all studies. Proteinuria and weight were measured every 2 weeks and blood was collected every four weeks for sera analysis. Proteinuria was measured by a standard semi-quantitative test using Siemens Uristix dipsticks (Siemens Healthcare, Deerfield, Ill., USA). Results were quantified according to the manufacturer's instructions and scored as follows: dipstick reading of 0 mg/dL=0, trace=1, 30-100 mg/dL=2, 100-300 mg/dL=3, 300-2000 mg/dL=4, and 2000+ mg/dL=5.
RNA was isolated using the mirVana miRNA isolation kit according to the manufacturer's protocol (Applied Biosystems, Carlsbad, Calif., USA). The eluates were quantified on a spectrophotometer (Nanodrop, Thermo Scientific, Waltham, Mass., USA). An aliquot was taken and diluted to 1 ng/μL for real-time RT-PCR. The eluted RNA was stored at −80° C.
IL-6, IL-10 and TGF-β mRNA expression were measured using TaqMan Gene Expression assays (Applied Biosystems, Carlsbad, Calif., USA). The […] using the endogenous control GAPDH, and then the ΔCT was determined by calculating the fold change in expression between the NZB/W mice treated with ACY-738 and the DMSO-treated controls. All samples were run in triplicate.
The cortical tissue was isolated from one kidney of each mouse and pooled by treatment group. Briefly, cortical tissue was pressed through grading sieves and resuspended in 750 U/mL Worthington type I collagenase at 37° C. for 20 min. Glomerular cells were pelleted, resuspended in RNAlater (QIAGEN, Valencia, Calif., USA), and stored at −20° C. until RNA isolation.
Following euthanization, glomeruli were isolated from the kidneys and RNA was extracted. Relative glomerular mRNA expression of IL-10, TGF-β, and IL-6 were determined using real-time RT-PCR.

[2] = system: NZB/W mice; assay: Survival rate and disease progression (body weight, proteinuria, spleen weight) in NZB/W mice; conditions: for proteinuria: every 2 weeks
Procedure: as §1
However, half of the NZB/W mice receiving the vehicle control alone died before termination of the study at 38 weeks-of-age (FIG. 6 A). Body weight increased as NZB/W mice aged following treatment with ACY-738. Vehicle control-treated NZB/W mice experienced weight loss concomitantly with increased proteinuria (FIG. 6 B).
Throughout the treatment period, NZB/W mice were monitored for changes in proteinuria and body weight.
Because SLE is characterized by enlargement of the spleen, splenomegaly was assessed in mice following euthanization by determining the total spleen weight along with the spleen: body weight ratio. Both spleen weight and spleen: body weight ratio were decreased following HDAC6 inhibition in a concentration dependent manner (FIG. 6 D-E).

[3] = system: splenic B cells; assay: Splenic B cell developmental stages by flow cytometry in treated NZB/W mice; conditions: either low (5 mg/kg) or high (20 mg/kg) dose
Procedure: as §1
Following euthanization, spleens were removed and single-cell suspensions of splenocytes were incubated with PerCP710 conjugated IgM, FITC conjugated AA4.1, PE conjugated CD23, and APC conjugated CD21 anti-mouse mAbs (eBioscience, San Diego, Calif., USA). IgM^+ cells were analyzed for the expression of AA4.1, CD23 and CD21 and divided into the following developmental stages using flow cytometry: T1 (IgM^+ CD23^− AA4.1^+ CD21^−), T2 (IgM^hi CD23^+ AA4.1^+ CD21^+), T3 (IgM^lo CD23^+ AA4.1^+ CD21^+), F0 (IgM^+ CD23^+ AA4.1^− CD21^−), MZ (IgM^+ CD23^− AA4.1^− CD21^+) or B1 (IgM^+ CD23^− AA4.1^− CD21^−). […]

[4] = system: glomerular IgG and C3 deposition; assay: Glomerular immune complex (IgG, C3) deposition by immunofluorescence in treated NZB/W mice; conditions: for glomerular C3 deposition (score 0-4, fluorescence) / glomerular IgG deposition (score 0-4, fluorescence): vs vehicle control
Procedure: as §1
One half of each kidney was placed in OCT media and snap-frozen in a slurry containing dry ice and 2-methylbutane (Fisher Scientific, Hampton, N.H., USA). Frozen kidney sections were cut into […] sections and stained with goat anti-mouse IgG conjugated to FITC (Pierce) diluted 1:100 or goat anti-mouse C3-FITC (Pierce, Thermo Fisher Scientific, Waltham, Mass., USA) diluted 1:100. Kidney sections were examined by fluorescent microscopy. Sections were scored (0-4) for immune complex deposition by a pathologist in a blinded manner.
5 μM kidney sections were stained with FITC-conjugated C3 or IgG and assessed for fluorescence intensity. (see FIGS. 10A and 10B).

[5] = system: Treg cells (CD4+Foxp3+CD25+); assay: Splenic Treg phenotype by flow cytometry in treated NZB/W mice; conditions: 38-week-old NZB/W mice, both doses (5 and 20 mg/kg), vs vehicle control
Procedure: as §1
A single-cell suspension was obtained from the thymuses and spleens of treated NZB/W mice at 38 weeks-of-age. Briefly, the thymus was removed from each NZB/W mouse and dissociated across a sterile wire mesh in a petri dish containing ice-cold RPMI 1640 medium (Thermo Scientific). RBCs were lysed using RBC lysis buffer and cells were pelleted and washed with PBS. Splenocytes were stained with APC-conjugated CD3, FITC-conjugated CD4, eFluor450 (eF450)-conjugated CD8a, PerCP-CY5.5-conjugated CD25, and PE-conjugated Foxp3. […] Fluorescence was measured using a FACScan flow cytometer and data was analyzed by FlowJo software. […]

[6] = 5 mg/kg, vs DMSO-treated controls
[7] = NZB/W mice after euthanization at 38 weeks, 5 and 20 mg/kg, concentration dependent
[8] = 16 weeks of treatment, dose not stated

O=C(NO)c1cnc(NC2(c3ccccc3)CC2)nc1 [ACY-738]
reduction of glomerular IL-6 mRNA level [1, 6]: more than 50%
reduction of glomerular IL-10 mRNA level [1, 6]: more than 50%
glomerular IL-6 mRNA level ([1]; 20 mg/kg): non-detectable levels
glomerular IL-10 mRNA level ([1]; 20 mg/kg): non-detectable levels
glomerular TGF-β mRNA ([1]; 5 and 20 mg/kg, dose-dependent): decreased
spleen weight [2, 7]: decreased
spleen: body weight ratio [2, 7]: decreased
body weight ([2]; NZB/W mice, 22-38 weeks-of-age, vehicle mice lost weight): increased
survival ([2]; NZB/W mice, high (20 mg/kg) or low (5 mg/kg) dose, to 38 weeks-of-age, half of vehicle mice died): survived to the completion of the study
proteinuria ([2]; NZB/W mice, high dose 20 mg/kg, 22-38 weeks-of-age, 20 mg/kg): prevented proteinuria from increasing; also recorded: significantly attenuated
proteinuria ([2]; NZB/W mice, low dose 5 mg/kg, 22-38 weeks-of-age): gradually increased
splenic B cell populations (T1, T2, T3, F0, MZ, B1) [3]: did not significantly affect; also recorded: no effect
glomerular C3 deposition (score 0-4, fluorescence) ([4]; 5 mg/kg, 5 mg/kg): slight decrease; also recorded: no significant effect
glomerular IgG deposition (score 0-4, fluorescence) ([4]; 5 mg/kg, 5 mg/kg): slight decrease; also recorded: no significant effect
glomerular C3 deposition (score 0-4, fluorescence) ([4]; 20 mg/kg (high dose), 20 mg/kg): significantly decreased
glomerular IgG deposition (score 0-4, fluorescence) ([4]; 20 mg/kg (high dose), 20 mg/kg): significantly decreased
glomerular C3 deposition level [4, 8]: significantly decreased
glomerular IgG deposition level [4, 8]: significantly decreased
percentage of splenic Treg cells (CD4+Foxp3+CD25+) [5]: significantly increased
